Measured values: PubChem BioAssay (NCI)
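Five compound concentrations were applied to cells in 96-well plates for 48 hours; endpoints were derived by simple linear interpolation of the resulting dose-response curve. GI50 is the concentration that inhibits growth by half. TGI denotes the concentration required for complete inhibition of growth.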

Experiments:
Experiment in all cases: inhibition of tumour cell growth, NCI panel, 48 h
A498 renal = system: A498 renal
COLO 205 colon = system: COLO 205 colon
MALME-3M melanoma = system: MALME-3M melanoma
MOLT-4 leukemia = system: MOLT-4 leukemia
OVCAR-3 ovarian = system: OVCAR-3 ovarian
OVCAR-5 ovarian = system: OVCAR-5 ovarian
SF-268 CNS = system: SF-268 CNS
SF-295 CNS = system: SF-295 CNS
SR leukemia = system: SR leukemia

| SMILES | TGI (A498 renal) | TGI (COLO 205 colon) | TGI (MALME-3M melanoma) | TGI (MOLT-4 leukemia) | TGI (OVCAR-3 ovarian) | TGI (OVCAR-5 ovarian) | TGI (SF-268 CNS) | TGI (SF-295 CNS) | TGI (SR leukemia) | GI50 (A498 renal) | GI50 (COLO 205 colon) | GI50 (OVCAR-3 ovarian) | GI50 (SF-295 CNS) | GI50 (MALME-3M melanoma) | GI50 (MOLT-4 leukemia) | GI50 (OVCAR-5 ovarian) | GI50 (SF-268 CNS) | GI50 (SR leukemia) |
| --- | --- | --- | --- | --- | --- | --- | --- | --- | --- | --- | --- | --- | --- | --- | --- | --- | --- | --- |
| CC/C(=N/O)C(C)C(=O)CCC(=O)Nc1ccc(Cl)cc1 (stereo not drawn) | > 100 µM | > 100 µM | > 100 µM | > 100 µM | > 100 µM | > 100 µM | > 100 µM | > 100 µM | – | – | – | – | – | – | – | – | – | – |
| CN(C)C(=S)/N=C(\N)N(C)C | > 100 µM | – | > 100 µM | > 100 µM | – | > 100 µM | > 100 µM | > 100 µM | > 100 µM | – | – | – | – | – | – | – | – | – |
| CC(C)CCCC(C)[C@H]1CCC2C3CC=C4C[C@@H](OC(=O)CC(CC(=O)[O-])C(=O)[O-])CC[C@]4(C)C3CC[C@@]21C.N.N.[Pt+4] (stereo partly drawn) | > 100 µM | > 100 µM | – | – | > 100 µM | – | – | > 100 µM | – | > 100 µM | > 100 µM | > 100 µM | > 100 µM | – | – | – | – | – |
| CSc1ccc(NC(=O)CCl)cc1 | – | 8.02 µM | – | > 10 µM | > 10 µM | > 10 µM | > 10 µM | 5.1 µM | > 10 µM | – | – | – | – | – | – | – | – | – |
| CC(C)(C)[Si](C)(C)O/N=C\c1cccc(O[Si](C)(C)C(C)(C)C)c1 | – | 33.1 µM | 62.1 µM | 36.8 µM | 29.8 µM | 35 µM | 38.5 µM | 31.9 µM | – | – | – | – | – | – | – | – | – | – |
| O=CCC(O)C(O)C(O)CO (stereo not drawn) | – | > 100 µM | > 100 µM | > 100 µM | > 100 µM | > 100 µM | > 100 µM | > 100 µM | > 100 µM | – | > 100 µM | > 100 µM | > 100 µM | > 100 µM | > 100 µM | > 100 µM | > 100 µM | > 100 µM |
| COC(=O)CCC(=O)Nc1cc(C)ccc1C | > 100 µM | > 100 µM | > 100 µM | > 100 µM | > 100 µM | – | – | > 100 µM | – | – | – | – | – | – | – | – | – | – |
| CC1=CC[C@@H]2C(=O)C=CC=C[C@H]12.[C-]#[O+].[C-]#[O+].[C-]#[O+].[Fe] | > 100 µM | – | > 100 µM | > 100 µM | > 100 µM | > 100 µM | – | – | > 100 µM | > 100 µM | – | > 100 µM | – | > 100 µM | > 100 µM | > 100 µM | – | > 100 µM |
| CC1=C(C(=O)NCc2ccccc2)C(c2ccc(N(C)C)cc2)C(C(=O)NCc2ccccc2)=C(C)N1 | > 100 µM | > 100 µM | > 100 µM | > 100 µM | > 100 µM | > 100 µM | – | > 100 µM | – | – | – | – | – | – | – | – | – | – |
| O=C1c2ccccc2-c2c1c1ccc([N+](=O)[O-])cc1c(=O)n2CCN1CCOCC1 | – | > 100 µM | > 100 µM | > 100 µM | > 100 µM | > 100 µM | > 100 µM | > 100 µM | > 100 µM | – | > 100 µM | > 100 µM | 92 µM | > 100 µM | 48.8 µM | > 100 µM | > 100 µM | 15.5 µM |
| CCCCCCCCCCCc1cc(=O)c2c(O)cccc2o1 | – | > 100 µM | > 100 µM | > 100 µM | > 100 µM | > 100 µM | > 100 µM | > 100 µM | > 100 µM | – | – | – | – | – | – | – | – | – |
| COc1ccc(C2C(C(=O)O)=C(CO)Oc3cc4c(cc32)OCO4)c(OC)c1 (stereo not drawn) | – | > 100 µM | > 100 µM | > 100 µM | > 100 µM | – | – | > 100 µM | – | – | – | – | – | – | – | – | – | – |
| [N-]=[N+]=Nc1nnc(CCCCc2nnc(N=[N+]=[N-])o2)o1 | > 100 µM | > 100 µM | > 100 µM | > 100 µM | > 100 µM | > 100 µM | > 100 µM | > 100 µM | – | – | – | – | – | – | – | – | – | – |
| C=CC(=O)OCCCS(=O)(=O)[O-].C=CC(=O)OCCCS(=O)(=O)[O-].NC1CCCCC1N.[Pt+4] | > 25 µM | > 25 µM | > 25 µM | > 25 µM | > 25 µM | > 25 µM | > 25 µM | > 25 µM | – | > 25 µM | > 25 µM | > 25 µM | > 25 µM | > 25 µM | > 25 µM | > 25 µM | > 25 µM | – |
| C=CCC(O)c1cc(OC)ccc1OC (stereo not drawn) | – | > 100 µM | > 100 µM | – | > 100 µM | > 100 µM | > 100 µM | > 100 µM | – | – | – | – | – | – | – | – | – | – |
| O=C(/C=C/c1ccco1)N1CCN(Cc2ccccc2)CC1 | > 100 µM | – | – | > 100 µM | > 100 µM | > 100 µM | > 100 µM | > 100 µM | > 100 µM | – | – | – | – | – | – | – | – | – |
| CC(C(=O)c1ccc(O)cc1)C1(O)C(=O)Nc2c(Cl)cc(Cl)cc21 (stereo not drawn) | > 85.3 µM | > 100 µM | > 100 µM | > 100 µM | > 84.3 µM | > 100 µM | > 100 µM | > 100 µM | – | – | – | – | – | – | – | – | – | – |
| CCN(CC)CCOc1ccccc1-n1c(C)ccc1-c1ccccc1 | 32 µM | 22.5 µM | 36.6 µM | 33.3 µM | 30.1 µM | 30.1 µM | 30.6 µM | 34.2 µM | – | 14.5 µM | 9.9 µM | 15.6 µM | 16.3 µM | 19.2 µM | 13.9 µM | 15.7 µM | 15.6 µM | – |
